Among the data in ChEMBL document CHEMBL1641449, “A novel transition state analog inhibitor of guanase based on azepinomycin ring structure: Synthesis and biochemical assessment of enzyme inhibition” (Bioorg Med Chem Lett, 2011) are Ki values, retold here.

This assay concerns the target T1, Guanine deaminase (Homo sapiens, UniProt Q9Y2T3).
T1 sequence (Q9Y2T3 whole entry): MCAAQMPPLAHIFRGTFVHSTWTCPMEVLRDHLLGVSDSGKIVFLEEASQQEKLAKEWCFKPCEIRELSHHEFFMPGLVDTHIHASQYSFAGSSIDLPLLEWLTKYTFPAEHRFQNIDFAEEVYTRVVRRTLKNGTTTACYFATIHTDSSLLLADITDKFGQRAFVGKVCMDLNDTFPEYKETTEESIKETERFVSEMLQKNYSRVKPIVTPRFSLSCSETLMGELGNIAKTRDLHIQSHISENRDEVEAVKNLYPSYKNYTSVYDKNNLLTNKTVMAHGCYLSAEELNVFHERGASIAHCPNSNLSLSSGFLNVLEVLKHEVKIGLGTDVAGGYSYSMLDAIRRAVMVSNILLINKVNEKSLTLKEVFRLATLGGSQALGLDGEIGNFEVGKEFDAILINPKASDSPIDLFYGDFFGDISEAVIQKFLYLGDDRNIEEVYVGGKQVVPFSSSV
Nature of the assay: Competitive inhibition of guanase by Lineweaver-Burk plot analysis.

`O=C(NC1(CO)NC(=O)c2ncn(Cc3ccccc3)c2NC1=O)OCc1ccccc1` (stereo unspecified): the affinity, expressed as Ki, was 16.7 µM.
